Patent US7772241B2, “Variolin derivatives and their use as antitumor agents” (Pharma Mar S.A., priority 2001, dated 2010)
Like-named read-outs stand apart in the source and are kept apart here.

Tests used:
IGROV-1 = assay: Inhibition of cells growth by colorimetric (SRB) assay, IGROV-1; conditions: SRB assay, 48 hours exposure
In short: (§1)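 Human tumour cells in RPMI 1640 with 10% FBS were seeded at 5×10^3 cells/well, allowed to attach for 18 h, then exposed to samples at 10 to 10^−8 μg/ml for 48 h. Growth was measured by SRB staining after TCA fixation, with absorbance read at 490 nm in triplicate wells.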

HMEC1 = assay: Inhibition of cells growth by colorimetric (SRB) assay, HMEC1
[1] = as above; conditions: human, HMEC1 cells, LC50 H-MEC-1, SRB assay, 48 hours exposure
HT-29 = assay: Inhibition of cells growth by colorimetric (SRB) assay, HT-29
In short: as §1

LoVo = assay: Inhibition of cells growth by colorimetric (SRB) assay, LoVo; conditions: SRB assay, 48 hours exposure
In short: as §1

IGROV-ET = assay: Inhibition of cells growth by colorimetric (SRB) assay, IGROV-ET; conditions: SRB assay, 48 hours exposure
In short: as §1

HeLa-APL = assay: Inhibition of cells growth by colorimetric (SRB) assay, HeLa-APL; conditions: SRB assay, 48 hours exposure
In short: as §1

HeLa = assay: Inhibition of cells growth by colorimetric (SRB) assay, HeLa; conditions: SRB assay, 48 hours exposure
In short: as §1

SK-MEL-28 = assay: Inhibition of cells growth by colorimetric (SRB) assay, SK-MEL-28; conditions: SRB assay, 48 hours exposure
In short: as §1

DU-145 = assay: Inhibition of cells growth by colorimetric (SRB) assay, DU-145; conditions: SRB assay, 48 hours exposure
In short: as §1

LoVo-Dox = assay: Inhibition of cells growth by colorimetric (SRB) assay, LoVo-Dox; conditions: SRB assay, 48 hours exposure
In short: as §1

PANC-1 = assay: Inhibition of cells growth by colorimetric (SRB) assay, PANC-1; conditions: SRB assay, 48 hours exposure
In short: as §1

LNCaP = assay: Inhibition of cells growth by colorimetric (SRB) assay, LNCaP; conditions: SRB assay, 48 hours exposure
In short: as §1

SK-BR-3 = assay: Inhibition of cells growth by colorimetric (SRB) assay, SK-BR-3; conditions: SRB assay, 48 hours exposure
In short: as §1

A-549 = assay: Inhibition of cells growth by colorimetric (SRB) assay, A-549
In short: as §1

K-562 = assay: Inhibition of cells growth by colorimetric (SRB) assay, K-562; conditions: SRB assay, 48 hours exposure
In short: as §1

## CSc1nccc(-c2c3c(O)ccnc3n3c(N)nccc23)n1 [Compound 95]
IGROV-1
  IGROV TGI: 3.08E−05
IGROV-1; read-out: IGROV GI50
  GI50: ≥ 30.8 µM
IGROV-1; read-out: IGROV LC50
  CC50: ≥ 30.8 µM
HMEC1; Homo sapiens, HMEC-1, 48 h, read-out: GI50 H-MEC-1, SRB assay, 48 hours exposure
  GI50: ≥ 30.8 µM
HMEC1; SRB assay, 48 hours exposure, in M (unit assumed)
  TGI H-MEC-1: 3.08E−05
[1]
  CC50 at 48 h: ≥ 30.8 µM
HT-29; Homo sapiens, HT-29, 48 h, read-out: GI50 HT-29, SRB assay, 48 hours exposure
  GI50: ≥ 30.8 µM
HT-29; Homo sapiens, HT-29, 48 h, read-out: LC50 HT-29, SRB assay, 48 hours exposure
  CC50: ≥ 30.8 µM
HT-29; SRB assay, 48 hours exposure
  HT-29 TGI: 3.08E−05
  TGI HT-29: 3.08E−05
HT-29; read-out: HT-29 GI50, SRB assay, 48 hours exposure
  GI50: ≥ 30.8 µM
HT-29; read-out: HT-29 LC50, SRB assay, 48 hours exposure
  CC50: ≥ 30.8 µM
LoVo
  LOVO TGI: 3.08E−05
LoVo; read-out: LOVO GI50
  GI50: 11.3 µM
LoVo; read-out: LOVO LC50
  CC50: ≥ 30.8 µM
IGROV-ET
  IGROV-ET TGI: 3.08E−05
IGROV-ET; read-out: IGROV-ET GI50
  GI50: 3.95 µM
IGROV-ET; read-out: IGROV-ET LC50
  CC50: ≥ 30.8 µM
HeLa-APL
  HELA-APL TGI: 1.31E−08
HeLa-APL; read-out: HELA-APL GI50
  GI50: 0.00546 µM
HeLa-APL; read-out: HELA-APL LC50
  CC50: 0.0382 µM
HeLa
  HELA TGI: 2.57E−08
HeLa; read-out: HELA GI50
  GI50: 0.00916 µM
SK-MEL-28
  MEL-28 TGI: 3.08E−05
SK-MEL-28; read-out: MEL-28 GI50
  GI50: ≥ 30.8 µM
SK-MEL-28; read-out: MEL-28 LC50
  CC50: ≥ 30.8 µM
DU-145
  DU-145 TGI: 3.08E−05
DU-145; read-out: DU-145 GI50
  GI50: 10.2 µM
DU-145; read-out: DU-145 LC50
  CC50: ≥ 30.8 µM
LoVo-Dox
  LOVO-DOX TGI: 3.08E−05
LoVo-Dox; read-out: LOVO-DOX GI50
  GI50: ≥ 30.8 µM
LoVo-Dox; read-out: LOVO-DOX LC50
  CC50: ≥ 30.8 µM
PANC-1
  PANC-1 TGI: 3.08E−05
PANC-1; read-out: PANC-1 GI50
  GI50: 24.2 µM
PANC-1; read-out: PANC-1 LC50
  CC50: ≥ 30.8 µM
LNCaP
  LN-caP TGI: 3.08E−05
LNCaP; read-out: LN-caP GI50
  GI50: 4.1 µM
LNCaP; read-out: LN-caP LC50
  CC50: ≥ 30.8 µM
SK-BR-3
  SK-BR-3 TGI: 3.08E−05
SK-BR-3; read-out: SK-BR-3 GI50
  GI50: 1.52 µM
SK-BR-3; read-out: SK-BR-3 LC50
  CC50: ≥ 30.8 µM
A-549; Homo sapiens, A549, 48 h, read-out: GI50 A-549, SRB assay, 48 hours exposure
  GI50: ≥ 30.8 µM
A-549; Homo sapiens, A549, 48 h, read-out: LC50 A-549, SRB assay, 48 hours exposure
  CC50: ≥ 30.8 µM
A-549; SRB assay, 48 hours exposure
  A-549 TGI: 3.08E−05
  TGI A-549: 3.08E−05
A-549; read-out: A-549 GI50, SRB assay, 48 hours exposure
  GI50: 8.63 µM
A-549; read-out: A-549 LC50, SRB assay, 48 hours exposure
  CC50: ≥ 30.8 µM
K-562
  K-562 TGI: 3.08E−05
K-562; read-out: K-562 GI50
  GI50: ≥ 30.8 µM
K-562; read-out: K-562 LC50
  CC50: ≥ 30.8 µM
